Measurements taken from PubChem BioAssay (NCI).
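Five concentrations, 48 hours, 96-well plates. TGI: concentration producing complete growth inhibition.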

How the values were obtained:
Assay in all cases: NCI tumour cell line growth inhibition, 48 h
[1] = test system: M19-MEL melanoma
[2] = test system: HOP-18 NSCLC
[3] = test system: SN12K1 renal
[4] = test system: DMS 273 small cell lung
[5] = test system: DMS 114 small cell lung
[6] = test system: P388/ADR leukemia
[7] = test system: P388 leukemia
[8] = test system: MDA-N
[9] = test system: T-47D breast
[10] = test system: HS 578T breast

SMILES	TGI [1] [µM]	TGI [2] [µM]	TGI [3] [µM]	TGI [4] [µM]	TGI [5] [µM]	TGI [6] [µM]	TGI [7] [µM]	TGI [8] [µM]	TGI [9] [µM]	TGI [10] [µM]
COc1cc2c(cc1OC)C(OC)N(C)c1c-2ccc2cc3c(cc12)OCO3 (stereo not drawn)	4.08	68.5	2.05	14.4	12.3	13	4.98	> 75	–	–
C[C@@H](CN1CC(=O)NC(=O)C1)N1CC(=O)NC(=O)C1	998	1180	541	626	441	2180	2500	680	1020	1810
